Values of other authors as cited in patent US20090011476A1, “GENE CLUSTER AND METHOD FOR THE BIOSYNTHESIS OF TERREQUINONE A” (Wisconsin Alumni Research Foundation, priority 2005, published 2009).

Test system: tumor cell lines
Settings: literature statement, values not given

## terrequinone A
  inhibitory properties on tumor cell lines: inhibitory properties
